Reference: US20120128630A1, “1-(6 MEMBERS AZO-HETEROCYCLIC)-PYRROLIN-2-ONE COMPOUNDS AS INHIBITORS OF HEPATITIS C NS5B POLYMERASE, THE PHARAMACEUTICAL COMPOSITION THEREOF AND THEIR THERAPEUTIC USE” (priority 2009, published 2012)

What was measured:
HCV NS5B genotype 1b = target: T1, HCV NS5B genotype 1b (Hepatitis C virus genotype 1b, UniProt Q9WMX2); assay: 3D-SCREEN assay (NS5B 3D-Screen platform, luciferase reporter gene); type: cell-based; conditions: EC50_3DS_NS5B
T1 construct: The protein was expressed with a 21 amino acid C-terminal deletion to remove transmembrane domain; expressed in transfected cells; host or cells: Huh-7
Source text: cDNA encoding HCV NS5B genotype 1b, was cloned in frame with Gal4-DNA Binding Domain. The protein was expressed with a 21 amino acid C-terminal deletion to remove transmembrane domain. Expression of NS5BΔ21/Gal4 DBD fusion protein was under control of SV40 early promoter. 3D-Sensor peptide was cloned in frame with VP16 activation domain. Expression of 3D-Sensor/VP16 AD fusion protein was under control of CMV promoter. Expression of the firefly luciferase reporter gene was inducible by the [Target protein/conformation sensitive peptide/VP16AD] complex.
It is a single-target, cell based assay. Briefly, expression of a reporter gene depends on the interaction of a short peptide, thereafter named 3D-Sensor, and native conformation of the target protein. Whenever the conformation of the target protein is modified, interaction between 3D-sensor and target protein is disrupted and reporter gene is not expressed anymore. Conformation modifiers are identified by loss of expression of reporter gene. NS5B 3D-Screen platform was generated in Huh-7 cell lines by transient transfection of three expression vectors encoding respectively
(i) HCV NS5BΔ21/Gal4-DBD fusion protein
(ii) the 3D-sensor peptide I4/VP16 fusion protein
(iii) the firefly luciferase reporter gene
Huh-7 cells were dissociated the day before transfection and seeded in T175 flasks at a density of 10^7 cells in 30 ml culture medium. Equimolar ratios of vectors were transfected in cell according to optimized jetPEI transfection protocol (PolyPlus Transfection, Illkirch, France) and 10 μg total DNA/10^6 cells. Transfection was performed for 2 hours at 37° C. and 5% CO2 in a humidified atmosphere. After two hours cells were dissociated and seeded in 96 wells plates at a density of 25,000 cells per well and 90 μl culture medium. 10 μl of compounds to be tested were added 2 hours after seeding. Final concentration of DMSO was 1%. Cells were incubated in the presence of compounds for 24 hours after which expression of firefly luciferase reporter gene was quantified. Briefly, culture medium was removed and cells were lysed by addition of 100 μl of lysis buffer containing 125 mM Tris Phosphate ph 7.8, 10 mM EDTA, 5 mM DTT, 50% glycerol and 5% Triton. Plates were vortexed 10 min at 1300 rpm. Cell lysat was transferred in OpaqueWhite Assay 96 well Flat Bottom plates. 100 μl of luciferin solution 1× were added to each well. Luciferin solution contained 40 mM Tris Phosphate ph 7.8, 0.2 mM EDTA, 67 mM DTT, 2.14 mM MgCl2, 5.4 mM MgSO4, 4.7×10^−4 M luciferin, 5.3×10^−4 M ATP and 2.7×10^−4 M Acetyl co enzyme A. Luminescence was immediately measured with Berthold Microlumat Plus LB 96V luminometer with an integration of 0.5 sec. Inhibition was calculated using the formula: % inhibition=(1−(read/average max))*100. Average max=signal in absence of compound

[1] = Table 1, 3D-SCREEN assay results, Huh-7 cells, 24 hours with compound, firefly luciferase reporter

| melting point [°C] | Structure (SMILES) | EC50 (HCV NS5B genotype 1b; [1]) [µM] | EC50 (HCV NS5B genotype 1b; Table 2, titled Replicon assay results) [µM] |
| --- | --- | --- | --- |
| 198 to 199 | CCOc1ccc(C2C(C(=O)c3ccc(C(C)C)cc3)=C(O)C(=O)N2c2ccc(C)nn2)nc1 (centres unmarked) |  |  |
| 273 to 278 | Cc1ccc(N2C(=O)C(O)=C(C(=O)c3ccc(C(C)C)cc3)C2c2ccc(F)cc2)nn1 (centres unmarked) |  |  |
| 222 to 224 | Cc1ccc(N2C(=O)C(O)=C(C(=O)c3ccc(C(C)C)cc3)C2c2ccc(O)cc2)nn1 (centres unmarked) |  |  |
| 223 | Cc1ccc(N2C(=O)C(O)=C(C(=O)c3ccc(C(C)C)cc3)C2c2ccc(Cn3cncn3)cc2)nn1 (centres unmarked) |  |  |
| 263 | Cc1ccc(N2C(=O)C(O)=C(C(=O)c3ccc(C(C)C)cc3)C2c2ccc(Cn3cccn3)cc2)nn1 (centres unmarked) |  |  |
| 271 | Cc1ccc(N2C(=O)C(O)=C(C(=O)c3ccc(C(C)C)cc3)C2c2ccc(Cn3ncnn3)cc2)nn1 (centres unmarked) |  |  |
| 258 | Cc1ccc(N2C(=O)C(O)=C(C(=O)c3ccc(OC(F)(F)F)cc3)C2c2ccc(Cn3ncnn3)cc2)nn1 (centres unmarked) |  |  |
| 275 | Cc1ccc(N2C(=O)C(O)=C(C(=O)c3ccc(OC(F)(F)F)cc3)C2c2ccc(Cn3ccnn3)cc2)nn1 (centres unmarked) |  |  |
| 277 | Cc1ccc(N2C(=O)C(O)=C(C(=O)c3ccc(OC(F)(F)F)cc3)C2c2ccc(Cn3nccn3)cc2)nn1 (centres unmarked) |  |  |
| 224 | Cc1ccc(N2C(=O)C(O)=C(C(=O)c3ccc(OC(F)(F)F)cc3)C2c2ccc(Cn3cncn3)cc2)nn1 (centres unmarked) |  |  |
| 271 | Cc1ccc(N2C(=O)C(O)=C(C(=O)c3cccc(Cl)c3)C2c2ccc(C(C)C)cc2)nn1 (centres unmarked) |  |  |
| 280 | Cc1ccc(N2C(=O)C(O)=C(C(=O)c3ccc(C(C)C)cc3)C2c2ccc(Oc3ccccn3)cc2)nn1 (centres unmarked) |  |  |
| 293 | Cc1ccc(N2C(=O)C(O)=C(C(=O)c3ccc(C(C)C)cc3)C2c2ccc(-c3nnc(C)o3)cc2)nn1 (centres unmarked) |  |  |
| 265 | COc1cccc(C2C(C(=O)c3ccc(C)cc3)=C(O)C(=O)N2c2ccc(C)nn2)c1 (centres unmarked) |  |  |
| 259 | COc1ccc(C(=O)C2=C(O)C(=O)N(c3ccc(C)nn3)C2c2ccc(OC)cc2)cc1 (centres unmarked) |  |  |
| 264 to 266 | COC(=O)c1ccc(N2C(=O)C(O)=C(C(=O)c3ccc(C)cc3)C2c2ccc(C(C)C)cc2)nc1 (centres unmarked) |  |  |
| 211 to 213 | COc1ccccc1C1C(C(=O)c2ccc(C)cc2)=C(O)C(=O)N1c1ccc(C)nn1 (centres unmarked) |  |  |
| 245 to 250 | Cc1cccc(C(=O)C2=C(O)C(=O)N(c3ccc(C)nn3)C2c2ccc(C(C)C)cc2)c1 (centres unmarked) |  |  |
| 269 to 270 | Cc1ccc(C(=O)C2=C(O)C(=O)N(c3ccc(C(C)C)nn3)C2c2ccc(C(C)C)cc2)cc1 (centres unmarked) |  |  |
| 198 to 203 | Cc1ccc(N2C(=O)C(O)=C(C(=O)c3ccc(C(C)C)cc3)C2c2ccc(N3CCN(C)CC3)cc2)nn1 (centres unmarked) |  |  |
| 232 | COc1ccc(C2C(C(=O)c3ccc(N4CCOCC4)cc3)=C(O)C(=O)N2c2ccc(C)nn2)cc1 (centres unmarked) |  |  |
| 254 | Cc1ccc(C(=O)C2=C(O)C(=O)N(c3ccc(C)nn3)C2c2ccc(C)cc2C)cc1 (centres unmarked) |  |  |
| 255 to 257 | Cc1ccc(C(=O)C2=C(O)C(=O)N(c3ccc(C(F)(F)F)cn3)C2c2ccc(C(C)C)cc2)cc1 (centres unmarked) |  |  |
| 185.3 | Cc1ccc(C(=O)C2=C(O)C(=O)N(c3ccc(C)nn3)C2c2ccc(N3CCN(CCN(C)C)CC3)cc2)cc1 (centres unmarked) |  |  |
| 206 to 209 | COc1ccc(COc2ccc(C(=O)C3=C(O)C(=O)N(c4ccc(C)nn4)C3c3ccc(OC(F)(F)F)cc3)cc2)cc1 (centres unmarked) |  |  |
| 206 to 207 | COC1=C(C(=O)c2ccc(C)cc2)C(c2ccc(OC(F)(F)F)cc2)N(c2ccc(C)nn2)C1=O (centres unmarked) |  |  |
| 248 to 249 | COC1=C(C(=O)c2ccc(C)cc2)C(c2ccc(C(C)C)cc2)N(c2ccc(C)nn2)C1=O (centres unmarked) |  |  |
| 247 to 249 | Cc1ccc(N2C(=O)C(O)=C(C(=O)c3ccc(-c4ccccn4)cc3)C2c2ccc(OC(F)(F)F)cc2)nn1 (centres unmarked) |  |  |

The next lines start with the molecule.

| Structure (SMILES) | melting point [°C] | EC50 (HCV NS5B genotype 1b; [1]) [µM] | EC50 (HCV NS5B genotype 1b; Table 2, titled Replicon assay results) [µM] |
| --- | --- | --- | --- |
| COC(=O)c1ccc(N2C(=O)C(O)=C(C(=O)c3ccc(C)cc3)C2c2ccc(C(C)(C)C)cc2)nc1 (centres unmarked) | 287 to 288 |  |  |
| COc1ccc(C(=O)C2=C(O)C(=O)N(c3ccc(C)nn3)C2c2ccc(OC(F)(F)F)cc2)cn1 (centres unmarked) | 250 to 251 |  |  |
| CC(=O)c1ccc(C2C(C(=O)c3ccc(C(C)C)cc3)=C(O)C(=O)N2c2ccc(C)nn2)cc1 (centres unmarked) | 259 to 266 |  |  |
| Cc1ccc(N2C(=O)C(O)=C(C(=O)c3ccc(C(C)C)cc3)C2c2ccc(Cn3cnnn3)cc2)nn1 (centres unmarked) | > 300 |  |  |
| Cc1ccc(N2C(=O)C(O)=C(C(=O)c3ccc(C(C)C)cc3)C2c2ccc(-n3cncn3)cc2)nn1 (centres unmarked) | 284 |  |  |
| Cc1ccc(N2C(=O)C(O)=C(C(=O)c3ccc(C(C)C)cc3)C2c2ccc(Cn3ccnn3)cc2)nn1 (centres unmarked) | 293 |  |  |
| Cc1ccc(N2C(=O)C(O)=C(C(=O)c3ccc(OC(F)(F)F)cc3)C2c2ccc(Cn3cnnn3)cc2)nn1 (centres unmarked) | > 300 |  |  |
| Cc1ccc(N2C(=O)C(O)=C(C(=O)c3ccccc3C)C2c2ccc(C(C)C)cc2)nn1 (centres unmarked) | 221 |  |  |
| COc1ccc(C2C(C(=O)c3ccc(C)cc3)=C(O)C(=O)N2c2ccc(C)nn2)cc1 (centres unmarked) | 266 |  |  |
| Cc1ccc(C(=O)C2=C(O)C(=O)N(c3ccc(C)nn3)C2c2cccc(C(F)(F)F)c2)cc1 (centres unmarked) | 232 |  |  |
| Cc1ccc(N2C(=O)C(O)=C(C(=O)c3ccc(C(C)C)cc3)C2c2ccc(OCCN3CCOCC3)cc2)nn1 (centres unmarked) | 256 |  |  |
| Cc1ccc(C(=O)C2=C(O)C(=O)N(c3ccc(C)nn3)C2c2ccc(OC3CCN(C)CC3)cc2)cc1 (centres unmarked) | 259 to 260 |  |  |
| Cc1ccc(N2C(=O)C(O)=C(C(=NOCC(=O)O)c3ccc(C(C)C)cc3)C2c2ccc(C(C)C)cc2)nn1 (centres unmarked) | 234 |  |  |
| Cc1ccc(C(=O)C2=C(O)C(=O)N(c3ccc(C)nn3)C2c2ccc(OCCN(C)C)cc2)cc1 (centres unmarked) | 263 to 266 |  |  |
| Cc1ccc(N2C(=O)C(O)=C(C(=NOCC(=O)O)c3ccc(C(C)C)cc3)C2c2ccc(OC(F)(F)F)cc2)nn1 (mixture of isomers) [Example 83, [[4-Hydroxy-1-(6-methyl-pyridazin-3-yl)-5-oxo-2-(4-trifluoromethoxy-phenyl)-2,5-dihydro-1H-pyrrol-3-yl]-(4-isopropyl-phenyl)-methyleneaminooxy]-acetic acid] | 227 | 8 |  |
| COCCON=C(C1=C(O)C(=O)N(c2ccc(C)nn2)C1c1ccc(OC(F)(F)F)cc1)c1ccc(C(C)C)cc1 (mixture of isomers) [Example 84, 3-Hydroxy-4-{(4-isopropyl-phenyl)-[2-methoxy-ethoxyimino]-methyl}-1-(6-methyl-pyridazin-3-yl)-5-(4-trifluoromethoxy-phenyl)-1,5-dihydro-pyrrol-2-one] | 115 to 118 | 3 |  |
| Cc1ccc(C(=O)C2=C(O)C(=O)N(c3ccc(C)nn3)C2c2ccc(C(F)(F)F)cc2)cc1 (centres unmarked) [Example 18, 3-hydroxy-4-(4-methyl-benzoyl)-1-(6-methyl-pyridazin-3-yl)-5-(4-trifluoromethyl-phenyl)-1,5-dihydro-pyrrol-2-one] | 278 | 1 |  |
| COc1ccc(C(=O)C2=C(O)C(=O)N(c3ccc(C)nn3)C2c2ccc(OC(F)(F)F)cc2)cc1 (centres unmarked) [Example 23, 3-hydroxy-4-(4-methoxy-benzoyl)-1-(6-methyl-pyridazin-3-yl)-5-(4-trifluoromethoxy-phenyl)-1,5-dihydro-pyrrol-2-one] | 265 | 1 |  |
| COc1ccc(C2C(C(=O)c3ccc(OC(F)(F)F)cc3)=C(O)C(=O)N2c2ccc(C)nn2)cc1 (centres unmarked) [Example 24, 3-hydroxy-5-(4-methoxy-phenyl)-1-(6-methyl-pyridazin-3-yl)-4-(4-trifluoromethoxy-benzoyl)-1,5-dihydro-pyrrol-2-one] | 279 | 3 |  |
| Cc1ccc(N2C(=O)C(O)=C(C(=O)c3ccc(C(C)C)cc3)[C@@H]2c2ccc(C(C)(F)F)cc2)nn1 [Example 197, 5(S)-[4-(1,1-difluoro-ethyl)-phenyl]-3-hydroxy-4-(4-isopropyl-benzoyl)-1-(6-methyl-pyridazin-3-yl)-1,5-dihydro-pyrrol-2-one] |  |  | < 10 |
